Results published in ChEMBL document CHEMBL1909046, “DrugMatrix in vitro pharmacology data”.
pIC50, pKi: −log10 of the molar value.

How the values were obtained:
[1] = DRUGMATRIX: Glutamate, AMPA radioligand binding (ligand: [3H] AMPA); format: cell membranes, Rattus norvegicus, Wistar, Cerebral cortex, Membrane; conditions: Not Active = under 50% inhibition at 10 µM
[2] = biological target: T1, Neuropeptide Y receptor type 1 (Homo sapiens, UniProt P25929); format: cell membranes, Membrane; conditions: sk-n-mc; further: in other assays of this panel Not Active means under 50% inhibition at 10 µM
T1 sequence (P25929 whole entry): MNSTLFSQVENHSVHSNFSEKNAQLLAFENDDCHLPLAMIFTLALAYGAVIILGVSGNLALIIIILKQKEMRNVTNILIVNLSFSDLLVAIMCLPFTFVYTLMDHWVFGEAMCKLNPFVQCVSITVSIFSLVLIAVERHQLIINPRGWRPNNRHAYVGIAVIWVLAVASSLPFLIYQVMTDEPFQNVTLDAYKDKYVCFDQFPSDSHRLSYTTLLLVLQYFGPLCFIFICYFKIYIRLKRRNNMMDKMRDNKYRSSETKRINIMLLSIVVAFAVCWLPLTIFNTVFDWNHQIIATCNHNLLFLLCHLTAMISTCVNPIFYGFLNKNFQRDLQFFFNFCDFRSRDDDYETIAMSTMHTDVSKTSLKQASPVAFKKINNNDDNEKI

[3] = biological target: T2, 5-hydroxytryptamine receptor 2C (Homo sapiens, UniProt P28335); assay: DRUGMATRIX: Serotonin (5-Hydroxytryptamine) 5-HT2C radioligand binding (ligand: [3H] Mesulergine); format: cell membranes, CHO-K1, Membrane; conditions: Not Active = under 50% inhibition at 10 µM; for IC50: cho-k1; for pIC50: read-out: IC50; for pKi: read-out: Ki
T2 sequence (P28335 whole entry): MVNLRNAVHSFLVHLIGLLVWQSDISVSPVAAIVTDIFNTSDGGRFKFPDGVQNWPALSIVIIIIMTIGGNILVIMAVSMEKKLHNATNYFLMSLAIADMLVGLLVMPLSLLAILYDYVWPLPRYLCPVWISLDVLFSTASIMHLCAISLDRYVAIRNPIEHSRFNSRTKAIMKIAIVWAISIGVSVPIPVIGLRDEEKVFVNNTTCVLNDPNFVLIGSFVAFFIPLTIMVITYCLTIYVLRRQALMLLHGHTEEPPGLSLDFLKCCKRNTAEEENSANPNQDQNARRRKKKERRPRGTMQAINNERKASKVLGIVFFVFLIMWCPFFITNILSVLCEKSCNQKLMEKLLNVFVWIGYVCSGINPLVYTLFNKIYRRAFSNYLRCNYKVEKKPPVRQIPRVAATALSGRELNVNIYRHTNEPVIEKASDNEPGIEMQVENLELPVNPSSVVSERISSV

[4] = biological target: T3, Thromboxane-A synthase (Homo sapiens, UniProt P24557); assay: biochemical; format: tissue-based, Platelet; conditions: for pIC50: read-out: IC50; for IC50: platelet;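 on all read-outs here: enzyme inhibition assay with PGH2 supplied as substrate; in other assays of this panel Not Active means under 50% inhibition at 10 µM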
T3 sequence (P24557 whole entry): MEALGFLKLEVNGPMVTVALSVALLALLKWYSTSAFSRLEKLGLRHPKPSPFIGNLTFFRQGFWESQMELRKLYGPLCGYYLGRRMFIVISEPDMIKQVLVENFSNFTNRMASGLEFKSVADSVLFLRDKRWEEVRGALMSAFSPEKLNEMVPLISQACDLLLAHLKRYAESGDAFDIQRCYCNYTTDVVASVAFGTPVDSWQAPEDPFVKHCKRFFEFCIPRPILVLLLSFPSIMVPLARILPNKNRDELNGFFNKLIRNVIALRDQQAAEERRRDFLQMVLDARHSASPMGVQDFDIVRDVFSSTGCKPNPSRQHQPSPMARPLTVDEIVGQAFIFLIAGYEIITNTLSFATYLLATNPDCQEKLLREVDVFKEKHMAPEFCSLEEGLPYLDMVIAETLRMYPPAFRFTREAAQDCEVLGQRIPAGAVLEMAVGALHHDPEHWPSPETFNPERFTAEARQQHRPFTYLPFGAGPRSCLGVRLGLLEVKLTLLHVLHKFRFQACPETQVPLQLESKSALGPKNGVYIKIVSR

[5] = DRUGMATRIX: Glutamate, NMDA, Agonism radioligand binding (ligand: [3H] CGP-39653); format: cell membranes, Rattus norvegicus, Wistar, Cerebral cortex, Membrane; conditions: Not Active = under 50% inhibition at 10 µM
[6] = biological target: D(3) dopamine receptor (Homo sapiens, UniProt P35462); assay: DRUGMATRIX: Dopamine D3 radioligand binding (ligand: [3H] Spiperone); format: cell membranes, CHO, Membrane; conditions: for IC50: cho; for pIC50: read-out: IC50; for pKi: read-out: Ki
Chain of D(3) dopamine receptor (P35462 whole entry): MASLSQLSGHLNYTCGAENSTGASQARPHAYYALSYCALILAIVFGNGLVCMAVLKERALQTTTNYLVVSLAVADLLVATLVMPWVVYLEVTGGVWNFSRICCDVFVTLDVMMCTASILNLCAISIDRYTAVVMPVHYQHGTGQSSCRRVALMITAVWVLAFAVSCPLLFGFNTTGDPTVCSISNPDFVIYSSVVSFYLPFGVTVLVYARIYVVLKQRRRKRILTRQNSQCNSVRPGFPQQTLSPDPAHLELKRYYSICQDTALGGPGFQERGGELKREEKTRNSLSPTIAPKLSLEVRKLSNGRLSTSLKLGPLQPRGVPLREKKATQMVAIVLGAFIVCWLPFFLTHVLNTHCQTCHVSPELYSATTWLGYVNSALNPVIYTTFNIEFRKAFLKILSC

Structure (SMILES) | IC50 [1] | Ki [1] | IC50 [2] | IC50 [3] | pIC50 [4] | IC50 [5] | Ki [5] | IC50 [6] | IC50 [4] | pIC50 [6] | pKi [6] | pIC50 [3] | pKi [3]
CC(C)(C)NC(=O)[C@@H]1C[C@@H]2CCCC[C@@H]2CN1C[C@@H](O)[C@H](Cc1ccccc1)NC(=O)[C@H](CC(N)=O)NC(=O)c1ccc2ccccc2n1 | Not Active | Not Active | Not Active | Not Active | 5.66 | Not Active | Not Active | – | – | – | – | – | –
CC(=O)[C@@]1(O)CC[C@H]2[C@@H]3C[C@H](C)C4=CC(=O)CC[C@]4(C)[C@H]3CC[C@@]21C | Not Active | Not Active | Not Active | Not Active | – | Not Active | Not Active | Not Active | Not Active | – | – | – | –
N[C@@H](Cc1ccc(N(CCCl)CCCl)cc1)C(=O)O | Not Active | Not Active | Not Active | Not Active | – | Not Active | Not Active | Not Active | Not Active | – | – | – | –
CCCCc1oc2ccccc2c1C(=O)c1cc(I)c(OCCN(CC)CC)c(I)c1 [AMIODARONE] | – | – | Not Active | – | – | – | – | – | Not Active | – | – | – | –
OCCN(CCO)c1nc(N2CCCCC2)c2nc(N(CCO)CCO)nc(N3CCCCC3)c2n1 [DIPYRIDAMOLE] | Not Active | Not Active | Not Active | Not Active | – | Not Active | Not Active | Not Active | Not Active | – | – | – | –
Cc1oncc1C(=O)Nc1ccc(C(F)(F)F)cc1 [LEFLUNOMIDE] | Not Active | Not Active | Not Active | Not Active | – | Not Active | Not Active | Not Active | Not Active | – | – | – | –
c1ccc([C@H]2CN3CCSC3=N2)cc1 [LEVAMISOLE] | Not Active | Not Active | Not Active | Not Active | – | Not Active | Not Active | Not Active | Not Active | – | – | – | –
N[C@@H](Cc1ccc(O)c(O)c1)C(=O)O [LEVODOPA] | Not Active | Not Active | Not Active | Not Active | – | Not Active | Not Active | Not Active | Not Active | – | – | – | –
N[C@@H](Cc1cc(I)c(Oc2ccc(O)c(I)c2)c(I)c1)C(=O)O [LIOTHYRONINE] | – | – | Not Active | Not Active | – | – | – | Not Active | Not Active | – | – | – | –
O=NN(CCCl)C(=O)NC1CCCCC1 [LOMUSTINE] | Not Active | Not Active | Not Active | Not Active | – | Not Active | Not Active | Not Active | Not Active | – | – | – | –
CCOC(=O)N1CCC(=C2c3ccc(Cl)cc3CCc3cccnc32)CC1 [LORATADINE] | Not Active | Not Active | Not Active | Not Active | – | Not Active | Not Active | Not Active | Not Active | – | – | – | –
Cn1ccnc1S [METHIMAZOLE] | Not Active | Not Active | Not Active | Not Active | – | Not Active | Not Active | Not Active | Not Active | – | – | – | –
CC[C@@H](CO)NC(=O)[C@@H]1C=C2c3cccc4[nH]cc(c34)C[C@H]2N(C)C1 [METHYLERGONOVINE] | Not Active | Not Active | Not Active | – | – | Not Active | Not Active | – | Not Active | 6.78 | 7.24 | 7.89 | 8.18
COc1nc(C)nc(Cl)c1NC1=NCCN1 [MOXONIDINE] | Not Active | Not Active | Not Active | Not Active | – | Not Active | Not Active | Not Active | Not Active | – | – | – | –
COc1c(C)c2c(c(O)c1C/C=C(\C)CCC(=O)O)C(=O)OC2 [MYCOPHENOLIC ACID] | Not Active | Not Active | Not Active | Not Active | – | Not Active | Not Active | Not Active | Not Active | – | – | – | –
O=c1ncn2nc(Sc3ccc(F)cc3F)ccc2c1-c1c(Cl)cccc1Cl [NEFLAMAPIMOD] | Not Active | Not Active | Not Active | Not Active | – | Not Active | Not Active | Not Active | Not Active | – | – | – | –
CN1CCN(CCCN2c3ccccc3Sc3ccc(Cl)cc32)CC1 [PROCHLORPERAZINE] | – | – | Not Active | – | – | – | – | – | Not Active | – | – | – | –
CO[C@H]1/C=C/O[C@@]2(C)Oc3c(C)c(O)c4c(O)c(c(/C=N/N5CCN(C)CC5)c(O)c4c3C2=O)NC(=O)/C(C)=C\C=C\[C@H](C)[C@H](O)[C@@H](C)[C@@H](O)[C@@H](C)[C@H](OC(C)=O)[C@@H]1C [RIFAMPIN] | Not Active | Not Active | Not Active | Not Active | – | Not Active | Not Active | Not Active | Not Active | – | – | – | –
Nc1nc2ccc(OC(F)(F)F)cc2s1 [RILUZOLE] | Not Active | Not Active | Not Active | Not Active | – | Not Active | Not Active | Not Active | Not Active | – | – | – | –
Cc1nc2n(c(=O)c1CCN1CCC(c3noc4cc(F)ccc34)CC1)CCCC2 [RISPERIDONE] | – | – | Not Active | – | – | – | – | – | Not Active | – | – | – | –
C=CCC1(C(C)CCC)C(=O)NC(=O)NC1=O (stereo not drawn) [SECOBARBITAL] | Not Active | Not Active | Not Active | Not Active | – | Not Active | Not Active | Not Active | Not Active | – | – | – | –
C[C@@H]1CN(c2c(F)c(N)c3c(=O)c(C(=O)O)cn(C4CC4)c3c2F)C[C@H](C)N1 [SPARFLOXACIN] | Not Active | Not Active | Not Active | Not Active | – | Not Active | Not Active | Not Active | Not Active | – | – | – | –
Cc1noc(NS(=O)(=O)c2ccc(N)cc2)c1C [SULFISOXAZOLE] | Not Active | Not Active | Not Active | Not Active | – | Not Active | Not Active | Not Active | Not Active | – | – | – | –
CSc1ccc(/C=C2/C(C)=C(CC(=O)O)c3cc(F)ccc32)cc1 [SULINDAC SULFIDE] | Not Active | Not Active | Not Active | Not Active | – | Not Active | Not Active | Not Active | Not Active | – | – | – | –
Nc1c2c(nc3ccccc13)CCCC2 [TACRINE] | Not Active | Not Active | Not Active | Not Active | – | Not Active | Not Active | Not Active | Not Active | – | – | – | –
CC/C(=C(\c1ccccc1)c1ccc(OCCN(C)C)cc1)c1ccccc1 [TAMOXIFEN] | – | – | Not Active | – | 6.04 | – | – | – | – | 5.97 | 6.44 | 6.34 | 6.62
CC(C)N1CCN(c2ccc(OCC3COC(Cn4cncn4)(c4ccc(Cl)cc4Cl)O3)cc2)CC1 (stereo not drawn) [TERCONAZOLE] | Not Active | Not Active | Not Active | – | – | Not Active | Not Active | – | Not Active | 5.33 | 5.80 | 5.16 | 5.44
Nc1nc2nc[nH]c2c(=S)[nH]1 [THIOGUANINE] | Not Active | Not Active | Not Active | Not Active | – | Not Active | Not Active | Not Active | Not Active | – | – | – | –
